The values that follow come from patent publication US10131653B2, “Heterocyclic compound” (TAKEDA PHARMACEUTICAL COMPANY LIMITED, priority 2015, dated 2018).

The inhibition is the drop in the measured response relative to a control, in per cent.

Where a name gives a salt, the structure may show the parent alone. Read-outs that look alike come from different tables or passages of the source.

Test [1] concerns the target T1, human OX1 receptor (Homo sapiens, UniProt O43613).
T1 construct: expressed in transfected cells; host or cells: CHO cells
T1 sequence (O43613 1-425): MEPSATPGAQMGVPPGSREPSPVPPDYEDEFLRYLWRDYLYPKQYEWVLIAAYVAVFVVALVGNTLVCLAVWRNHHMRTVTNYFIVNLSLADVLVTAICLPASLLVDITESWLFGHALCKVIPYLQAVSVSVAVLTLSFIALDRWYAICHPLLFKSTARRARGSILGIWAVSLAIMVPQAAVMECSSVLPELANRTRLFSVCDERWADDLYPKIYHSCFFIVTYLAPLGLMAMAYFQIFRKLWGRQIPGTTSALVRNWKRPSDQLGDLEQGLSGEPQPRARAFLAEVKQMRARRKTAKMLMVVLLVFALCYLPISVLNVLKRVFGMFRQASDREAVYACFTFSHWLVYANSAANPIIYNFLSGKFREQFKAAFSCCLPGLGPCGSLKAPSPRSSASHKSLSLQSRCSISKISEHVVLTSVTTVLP
The test is described as follows: Measurement of orexin receptor antagonistic activity (calcium fluorescence, FLIPRtetra). The test is classed as cell-based. As to conditions: for inhibition at 10 µM: CHO, read-out: Human Orexin1 receptor inhibition (at 10 μM). The gist of the method:
(§1)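 CHO cells expressing human OX1 or OX2 receptor, cultured one day. Compound in HBSS/20 mM HEPES/0.1% BSA added, then orexin-A at 1 nM final (OX1) or 0.3 nM final (OX2); calcium fluorescence by FLIPRtetra every 1 s for 2 min.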

For test [2], the target named is T2, human OX2 receptor (Homo sapiens, UniProt O43614).
T2 construct: expressed in transfected cells; host or cells: CHO cells
T2 sequence (O43614 1-444): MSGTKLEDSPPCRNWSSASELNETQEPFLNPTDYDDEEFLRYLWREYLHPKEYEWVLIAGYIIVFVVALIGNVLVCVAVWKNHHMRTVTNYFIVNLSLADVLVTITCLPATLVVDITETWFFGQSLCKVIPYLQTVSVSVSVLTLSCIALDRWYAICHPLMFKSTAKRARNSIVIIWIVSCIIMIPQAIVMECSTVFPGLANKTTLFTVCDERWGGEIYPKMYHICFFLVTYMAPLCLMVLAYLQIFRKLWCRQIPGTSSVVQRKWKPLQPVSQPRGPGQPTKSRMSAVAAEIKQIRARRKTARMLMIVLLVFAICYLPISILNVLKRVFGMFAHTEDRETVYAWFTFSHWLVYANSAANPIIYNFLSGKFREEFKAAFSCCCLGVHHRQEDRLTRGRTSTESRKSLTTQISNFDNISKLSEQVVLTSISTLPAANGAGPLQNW
The test is described as above. The test is classed as cell-based. As to conditions: CHO, read-out: Human Orexin2 receptor inhibition (at 10 μM). The gist of the method: as §1

Where [3] appears, read: 10 μM test compound, CHO cells expressing human OX1 receptor, OX-A 1 nM.
Where [4] appears, read: 10 μM test compound, CHO cells expressing human OX2 receptor, OX-A 0.3 nM.

As for `Cc1cc(N2CCN(C(=O)c3ccccc3-c3nc(C)cs3)C[C@H](C)O2)nc(C)n1` [Example 110, ((7S)-2-(2,6-dimethylpyrimidin-4-yl)-7-methyl-1,2,5-oxadiazepan-5-yl)(2-(4-methyl-1,3-thiazol-2-yl)phenyl)methanone], the inhibition at 10 µM in test [1] (setting [3]) worked out at 79%; in test [2] (setting [4]), 95%.

Consider `Cc1cc(N2CCN(C(=O)c3ccccc3-c3nccs3)C[C@H](C)O2)nc(C)n1` [Example 84, ((7S)-2-(2,6-dimethylpyrimidin-4-yl)-7-methyl-1,2,5-oxadiazepan-5-yl)(2-(1,3-thiazol-2-yl)phenyl)methanone], for which the inhibition at 10 µM in test [1] (setting [3]) amounted to 100%; in test [2] (setting [4]), 98%.

Take `Cc1cc(N2CCN(C(=O)c3cc(F)c(F)cc3-n3nccn3)C[C@H](C)O2)nc(C)n1` [Example 106, (4,5-difluoro-2-(2H-1,2,3-triazol-2-yl)phenyl)((7S)-2-(2,6-dimethylpyrimidin-4-yl)-7-methyl-1,2,5-oxadiazepan-5-yl)methanone]: the inhibition at 10 µM in test [1] (setting [3]) is 38%; in test [2] (setting [4]), 99%.

For the molecule `Cc1cc(C)nc(N2CCN(C(=O)c3cc(Cl)cc(Cl)c3)CCO2)n1` [Example 56, (3,5-dichlorophenyl) (2-(4,6-dimethylpyrimidin-2-yl)-1,2,5-oxadiazepan-5-yl)methanone], the inhibition at 10 µM in test [1] (setting [3]) was found to be 21%; in test [2] (setting [4]), 96%.

In the case of `Cc1cc(N2CCN(C(=O)c3ccccc3-n3nccn3)C(C)C(C)O2)nc(C)n1` (stereo not shown) [Example 192, (2-(2,6-dimethylpyrimidin-4-yl)-6,7-dimethyl-1,2,5-oxadiazepan-5-yl)(2-(2H-1,2,3-triazol-2-yl)phenyl)methanone], in test [1] (setting [3]), the “Human Orexin1 receptor inhibition (at 10 μM)” value came out at 64%. In addition, the inhibition at 10 µM in test [2] (setting [4]) turned out to be 101%.

Turning to `Cc1nc(C(F)F)cc(N2CCN(C(=O)c3ccccc3-n3nccn3)C[C@H](C)O2)n1` [Example 93, ((7S)-2-(6-(difluoromethyl)-2-methylpyrimidin-4-yl)-7-methyl-1,2,5-oxadiazepan-5-yl) (2-(2H-1,2,3-triazol-2-yl)phenyl)methanone], the inhibition at 10 µM in test [1] (setting [3]) was found to be 72%; in test [2] (setting [4]), 100%.

Consider `Cc1cc(N2CCN(C(=O)c3cc(C(F)(F)F)ccc3-n3nccn3)C[C@H](C)O2)nc(C)n1` [Example 199, ((7S)-2-(2,6-dimethylpyrimidin-4-yl)-7-methyl-1,2,5-oxadiazepan-5-yl)(2-(2H-1,2,3-triazol-2-yl)-5-(trifluoromethyl)phenyl)methanone], for which the inhibition at 10 µM in test [1] (setting [3]) was determined as 42%; in test [2] (setting [4]) it was 100%.

For `Cc1cc(C)nc(N2CCN(C(=O)c3ccccc3C)CCO2)n1` [Example 57, (2-(4,6-dimethylpyrimidin-2-yl)-1,2,5-oxadiazepan-5-yl) (2-methylphenyl)methanone], the inhibition at 10 µM in test [1] is 10%; in test [2], 58%.

For `Cc1ccc(-n2nccn2)c(C(=O)N2CCON(c3cccc(C)n3)CC2)c1` [Example 33, (2-(6-methylpyridin-2-yl)-1,2,5-oxadiazepan-5-yl)(5-methyl-2-(2H-1,2,3-triazol-2-yl)phenyl)methanone], the inhibition at 10 µM in test [1] (setting [3]) was 44%; in test [2] (setting [4]), 99%.

As for `Cc1cc(N2CCN(C(=O)c3ccc(F)cc3-c3ncccn3)C[C@H](C)O2)nc(C)n1` [Example 218, ((7S)-2-(2,6-dimethylpyrimidin-4-yl)-7-methyl-1,2,5-oxadiazepan-5-yl)(4-fluoro-2-(pyrimidin-2-yl)phenyl)methanone], the figures for the inhibition at 10 µM in test [1] (setting [3]) and in test [2] (setting [4]) were 91% and 101%, respectively.

`Cc1cc(N2CCN(C(=O)c3ccccc3-n3nccn3)[C@H](C)CO2)nc(C)n1` [Example 148, ((6R)-2-(2,6-dimethylpyrimidin-4-yl)-6-methyl-1,2,5-oxadiazepan-5-yl) (2-(2H-1,2,3-triazol-2-yl)phenyl)methanone]: the inhibition at 10 µM came to 53% in test [1] (setting [3]) and 100% in test [2] (setting [4]).

As for `Cc1ccc(N2CCN(C(=O)c3cc(C)ccc3-n3nccn3)[C@H](C)CO2)nc1` [Example 141, ((6R)-6-methyl-2-(5-methylpyridin-2-yl)-1,2,5-oxadiazepan-5-yl) (5-methyl-2-(2H-1,2,3-triazol-2-yl)phenyl)methanone], the inhibition at 10 µM in test [1] is 71%; in test [2], 99%.

Turning to `Cc1cc(C)nc(N2CCN(C(=O)c3ccccc3-c3ncc[nH]3)CCO2)n1` [Example 82, (2-(4,6-dimethylpyrimidin-2-yl)-1,2,5-oxadiazepan-5-yl) (2-(1H-imidazol-2-yl)phenyl)methanone], the values for the inhibition at 10 µM in test [1] (setting [3]) and in test [2] (setting [4]) were 18% and 83%, respectively.

For `COc1ccnc(N2CCN(C(=O)c3cc(C)ccc3-n3nccn3)[C@H](C)CO2)c1` [Example 137, ((6R)-2-(4-methoxypyridin-2-yl)-6-methyl-1,2,5-oxadiazepan-5-yl) (5-methyl-2-(2H-1,2,3-triazol-2-yl)phenyl)methanone], the values for the inhibition at 10 µM in test [1] and in test [2] were 93% and 100%, respectively.

Turning to `CCC1CN(C(=O)c2ccccc2-n2nccn2)CCN(c2cc(C)nc(C)n2)O1` (stereo not shown) [Example 112, (2-(2,6-dimethylpyrimidin-4-yl)-7-ethyl-1,2,5-oxadiazepan-5-yl)(2-(2H-1,2,3-triazol-2-yl)phenyl)methanone], the inhibition at 10 µM in test [1] (setting [3]) worked out at 90%; in test [2] (setting [4]), 101%.

Regarding `Cc1cc(N2OCCN(C(=O)c3ccccc3-n3nccn3)CC2C)nc(C)n1` (stereo not shown) [Example 188, (2-(2,6-dimethylpyrimidin-4-yl)-3-methyl-1,2,5-oxadiazepan-5-yl)(2-(2H-1,2,3-triazol-2-yl)phenyl)methanone], the inhibition at 10 µM in test [1] (setting [3]) worked out at 13%; in test [2] (setting [4]), 29%.

Take `C[C@H]1CN(C(=O)c2ccccc2-n2nccn2)CCN(c2ccc(Cl)cn2)O1` [Example 98, ((7S)-2-(5-chloropyridin-2-yl)-7-methyl-1,2,5-oxadiazepan-5-yl) (2-(2H-1,2,3-triazol-2-yl)phenyl)methanone]: the inhibition at 10 µM in test [1] (setting [3]) was found to be 97%; in test [2] (setting [4]), 104%.

On to `Cc1cc(N2CCN(C(=O)c3ccccc3C3CCC3)CCO2)nc(C)n1` [Example 21, (2-cyclobutylphenyl) (2-(2,6-dimethylpyrimidin-4-yl)-1,2,5-oxadiazepan-5-yl)methanone], for which the inhibition at 10 µM in test [1] (setting [3]) was 19%; in test [2] (setting [4]) it was 99%.

Regarding `Cc1cc(N2C[C@@H](C)N(C(=O)c3ccccc3-c3nccs3)[C@@H](C)CO2)nc(C)n1` [Example 186, ((4R,6S)-2-(2,6-dimethylpyrimidin-4-yl)-4,6-dimethyl-1,2,5-oxadiazepan-5-yl)(2-(1,3-thiazol-2-yl)phenyl)methanone], the inhibition at 10 µM stood at 23% in test [1] (setting [3]) and 66% in test [2] (setting [4]).

On to `Cc1cc(N2CCN(C(=O)c3ccccc3-c3noc(C)n3)C[C@H](C)O2)nc(C)n1` [Example 232, ((7S)-2-(2,6-dimethylpyrimidin-4-yl)-7-methyl-1,2,5-oxadiazepan-5-yl)(2-(5-methyl-1,2,4-oxadiazol-3-yl)phenyl)methanone], for which the inhibition at 10 µM in test [1] (setting [3]) came out at 55%; in test [2] (setting [4]), 102%.

For `Cc1ccc(-n2nccn2)c(C(=O)N2CCN(c3ccc(F)c(Cl)c3)OC[C@H]2C)c1` [Example 134, ((6R)-2-(3-chloro-4-fluorophenyl)-6-methyl-1,2,5-oxadiazepan-5-yl) (5-methyl-2-(2H-1,2,3-triazol-2-yl)phenyl)methanone], the inhibition at 10 µM in test [1] is 92%; in test [2], 80%.

Turning to `Cc1cc(N2CCN(C(=O)c3cc(Cl)ccc3-c3nccs3)C[C@H](C)O2)nc(C)n1` [Example 88, (5-chloro-2-(1,3-thiazol-2-yl)phenyl)((7S)-2-(2,6-dimethylpyrimidin-4-yl)-7-methyl-1,2,5-oxadiazepan-5-yl)methanone hydrochloride], the inhibition at 10 µM in test [1] (setting [3]) came out at 101%; in test [2] (setting [4]), 99%.

In the case of `Cc1cc(N2C[C@H](C)N(C(=O)c3ccccc3-c3nccs3)[C@H](C)CO2)nc(C)n1` [Example 5, ((4S,6R)-2-(2,6-dimethylpyrimidin-4-yl)-4,6-dimethyl-1,2,5-oxadiazepan-5-yl)(2-(1,3-thiazol-2-yl)phenyl)methanone], the inhibition at 10 µM in test [1] (setting [3]) came out at 101%; in test [2] (setting [4]), 99%.
